Test results taken from ChEMBL document CHEMBL1201861, “Genomics of Drug Sensitity in Cancer screening data, Wellcome Trust Sanger Institute”.

Experiments:
Assay in all cases: cells
Format in all cases: functional, cell-based, Homo sapiens
ES8 = details: Homo sapiens, ES8;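 note: growth inhibition of human ES8 cells, read out with a cell viability assay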
Description: SANGER: Inhibition of human ES8 cell growth in a cell viability assay.

HCC 2998 = details: Homo sapiens, HCC 2998;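 note: growth inhibition of human HCC2998 cells, measured with a cell viability read-out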
Description: SANGER: Inhibition of human HCC2998 cell growth in a cell viability assay.

CP66-MEL = details: Homo sapiens, CP66-MEL;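 note: growth inhibition of CP66-MEL cells determined in a cell viability assay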
Description: SANGER: Inhibition of human CP66-MEL cell growth in a cell viability assay.

ES3 = details: Homo sapiens, ES3;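 note: growth inhibition of ES3 cells, read out with a cell viability assay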
Description: SANGER: Inhibition of human ES3 cell growth in a cell viability assay.

OMC-1 = details: Homo sapiens, OMC-1;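 note: growth inhibition of the OMC-1 cell line, measured by a cell viability assay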
Description: SANGER: Inhibition of human OMC-1 cell growth in a cell viability assay.

JVM-3 = details: Homo sapiens, JVM-3;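 note: growth inhibition of human JVM-3 cells, read out with a cell viability assay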
Description: SANGER: Inhibition of human JVM-3 cell growth in a cell viability assay.

KNS-81-FD = details: Homo sapiens, KNS-81-FD;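 note: growth inhibition of KNS-81-FD cells, read out with a cell viability assay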
Description: SANGER: Inhibition of human KNS-81-FD cell growth in a cell viability assay.

CCRF-CEM = details: Homo sapiens, CCRF-CEM;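 note: inhibition of CCRF-CEM cell growth, measured by a cell viability assay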
Description: SANGER: Inhibition of human CCRF-CEM cell growth in a cell viability assay.

NB10 = details: Homo sapiens, NB10;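 note: growth inhibition of NB10 cells, read out by a cell viability assay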
Description: SANGER: Inhibition of human NB10 cell growth in a cell viability assay.

KLE = details: Homo sapiens, KLE;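 note: growth inhibition of human KLE cells, read out with a cell viability assay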
Description: SANGER: Inhibition of human KLE cell growth in a cell viability assay.

COLO-800 = details: Homo sapiens, COLO-800;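 note: growth inhibition of COLO-800 cells, read out with a cell viability assay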
Description: SANGER: Inhibition of human COLO-800 cell growth in a cell viability assay.

SK-PN-DW = details: Homo sapiens, SK-PN-DW;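 note: growth inhibition measured with a viability assay on these cells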
Description: SANGER: Inhibition of human SK-PN-DW cell growth in a cell viability assay.

EW-18 = details: Homo sapiens, EW-18;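 note: growth inhibition of EW-18 cells, read out by a cell viability assay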
Description: SANGER: Inhibition of human EW-18 cell growth in a cell viability assay.

EW-3 = details: Homo sapiens, EW-3;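 note: cell viability assay read-out, IC50 reflects inhibition of growth of the EW-3 cells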
Description: SANGER: Inhibition of human EW-3 cell growth in a cell viability assay.

HT = details: Homo sapiens, HT
Description: SANGER: Inhibition of human HT cell growth in a cell viability assay.

ACN = details: Homo sapiens, ACN;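 note: growth inhibition of the human ACN cell line, read out via cell viability testing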
Description: SANGER: Inhibition of human ACN cell growth in a cell viability assay.

EC-GI-10 = details: Homo sapiens, EC-GI-10
Description: SANGER: Inhibition of human EC-GI-10 cell growth in a cell viability assay.

BB65-RCC = details: Homo sapiens, BB65-RCC;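 note: growth inhibition of the cell line, measured with a cell viability assay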
Description: SANGER: Inhibition of human BB65-RCC cell growth in a cell viability assay.

NEC8 = details: Homo sapiens, NEC8;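 note: growth inhibition of human NEC8 cells, read out by a cell viability assay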
Description: SANGER: Inhibition of human NEC8 cell growth in a cell viability assay.

MHH-NB-11 = details: Homo sapiens, MHH-NB-11;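 note: growth inhibition of human MHH-NB-11 cells, read out by a cell viability assay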
Description: SANGER: Inhibition of human MHH-NB-11 cell growth in a cell viability assay.

KARPAS-299 = details: Homo sapiens, KARPAS-299
Description: SANGER: Inhibition of human KARPAS-299 cell growth in a cell viability assay.

LB373-MEL-D = details: Homo sapiens, LB373-MEL-D;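 note: growth inhibition of the cell line, read out in a cell viability assay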
Description: SANGER: Inhibition of human LB373-MEL-D cell growth in a cell viability assay.

NCI-H1155 = details: Homo sapiens, NCI-H1155;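 note: cell growth inhibition measured by a viability assay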
Description: SANGER: Inhibition of human NCI-H1155 cell growth in a cell viability assay.

NCI-H1648 = details: Homo sapiens, NCI-H1648;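 note: cell viability assay measuring inhibition of NCI-H1648 cell growth, from the Sanger screening data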
Description: SANGER: Inhibition of human NCI-H1648 cell growth in a cell viability assay.

NCI-H69 = details: Homo sapiens, NCI-H69;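 note: growth inhibition of the cell line, read out with a cell viability assay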
Description: SANGER: Inhibition of human NCI-H69 cell growth in a cell viability assay.

KS-1 = details: Homo sapiens, KS-1;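 note: growth inhibition of KS-1 cells, read out with a cell viability assay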
Description: SANGER: Inhibition of human KS-1 cell growth in a cell viability assay.

SK-LMS-1 = details: Homo sapiens, SK-LMS-1;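 note: growth inhibition of human SK-LMS-1 cells, read out with a cell viability assay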
Description: SANGER: Inhibition of human SK-LMS-1 cell growth in a cell viability assay.

LS-513 = details: Homo sapiens, LS-513
Description: SANGER: Inhibition of human LS-513 cell growth in a cell viability assay.

ATN-1 = details: Homo sapiens, ATN-1;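 note: growth inhibition of human ATN-1 cells, read out with a cell viability assay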
Description: SANGER: Inhibition of human ATN-1 cell growth in a cell viability assay.

NCI-H747 = details: Homo sapiens, NCI-H747;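 note: growth inhibition of human NCI-H747 cells, read out by a cell viability assay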
Description: SANGER: Inhibition of human NCI-H747 cell growth in a cell viability assay.

NCI-H1770 = details: Homo sapiens, NCI-H1770;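 note: growth inhibition of NCI-H1770 cells determined with a viability readout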
Description: SANGER: Inhibition of human NCI-H1770 cell growth in a cell viability assay.

D283 Med = details: Homo sapiens, D283 Med
Description: SANGER: Inhibition of human D-283MED cell growth in a cell viability assay.

RKO = details: Homo sapiens, RKO;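 note: growth inhibition of human RKO cells, read out with a cell viability assay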
Description: SANGER: Inhibition of human RKO cell growth in a cell viability assay.

MMAC-SF = details: Homo sapiens, MMAC-SF;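 note: growth inhibition of human MMAC-SF cells, read out with a cell viability assay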
Description: SANGER: Inhibition of human MMAC-SF cell growth in a cell viability assay.

HOP-62 = details: Homo sapiens, HOP-62;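 note: cell growth inhibition determined with a viability assay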
Description: SANGER: Inhibition of human HOP-62 cell growth in a cell viability assay.

GT3TKB = details: Homo sapiens, GT3TKB;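 note: growth inhibition of the cell line, read out with a cell viability assay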
Description: SANGER: Inhibition of human GT3TKB cell growth in a cell viability assay.

KMOE-2 = details: Homo sapiens, KMOE-2;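 note: growth inhibition of human KMOE-2 cells, read out with a cell viability assay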
Description: SANGER: Inhibition of human KMOE-2 cell growth in a cell viability assay.

TK-10 = details: Homo sapiens, TK-10;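 note: growth inhibition of TK-10 cells, read out in a cell viability assay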
Description: SANGER: Inhibition of human TK10 cell growth in a cell viability assay.

DMS-79 = details: Homo sapiens, DMS-79;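 note: growth inhibition measured with a cell viability assay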
Description: SANGER: Inhibition of human DMS-79 cell growth in a cell viability assay.

HDLM-2 = details: Homo sapiens, HDLM-2;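 note: cell viability assay measuring suppression of HDLM-2 proliferation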
Description: SANGER: Inhibition of human HDLM-2 cell growth in a cell viability assay.

BE-13 = details: Homo sapiens, BE-13;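 note: growth inhibition of human BE-13 cells, measured with a cell viability assay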
Description: SANGER: Inhibition of human BE-13 cell growth in a cell viability assay.

KM-H2 = details: Homo sapiens, KM-H2;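 note: growth inhibition of KM-H2 cells, read out by a cell viability assay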
Description: SANGER: Inhibition of human KM-H2 cell growth in a cell viability assay.

IST-MES1 = details: Homo sapiens, IST-MES1;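 note: growth inhibition of IST-MES1 cells, measured with a cell viability assay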
Description: SANGER: Inhibition of human IST-MES1 cell growth in a cell viability assay.

RS4-11 = details: Homo sapiens, RS4-11;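 note: growth inhibition of RS4-11 cells, read out by a cell viability assay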
Description: SANGER: Inhibition of human RS4-11 cell growth in a cell viability assay.

IST-MEL1 = details: Homo sapiens, IST-MEL1;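 note: growth inhibition of the cell line, read out with a cell viability assay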
Description: SANGER: Inhibition of human IST-MEL1 cell growth in a cell viability assay.

LC-2-ad = details: Homo sapiens, LC-2-ad;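 note: growth inhibition of human LC-2-ad cells, read out with a cell viability assay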
Description: SANGER: Inhibition of human LC-2-ad cell growth in a cell viability assay.

D-502MG = details: Homo sapiens, D-502MG
Description: SANGER: Inhibition of human D-502MG cell growth in a cell viability assay.

LB1047-RCC = details: Homo sapiens, LB1047-RCC;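 note: inhibition of cell growth, determined with a cell viability assay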
Description: SANGER: Inhibition of human LB1047-RCC cell growth in a cell viability assay.

NCI-H1092 = details: Homo sapiens, NCI-H1092;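 note: cell growth inhibition measured with a cell viability assay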
Description: SANGER: Inhibition of human NCI-H1092 cell growth in a cell viability assay.

Cc1cn(-c2cc(NC(=O)c3ccc(C)c(Nc4nccc(-c5cccnc5)n4)c3)cc(C(F)(F)F)c2)cn1 [NILOTINIB]
IC50 (ES8): > 2 µM
IC50 (HCC 2998): > 2 µM
IC50 (CP66-MEL): > 2 µM
IC50 (ES3): > 2 µM
IC50 (OMC-1): > 2 µM
IC50 (JVM-3): > 2 µM
IC50 (KNS-81-FD): > 2 µM
IC50 (CCRF-CEM): > 2 µM
IC50 (NB10): > 2 µM
IC50 (KLE): > 2 µM
IC50 (COLO-800): > 2 µM
IC50 (SK-PN-DW): > 2 µM
IC50 (EW-18): > 2 µM
IC50 (EW-3): > 2 µM
IC50 (HT): > 2 µM
IC50 (ACN): 1.55 µM
IC50 (EC-GI-10): > 2 µM
IC50 (BB65-RCC): > 2 µM
IC50 (NEC8): > 2 µM
IC50 (MHH-NB-11): > 2 µM
IC50 (KARPAS-299): > 2 µM
IC50 (LB373-MEL-D): > 2 µM
IC50 (NCI-H1155): > 2 µM
IC50 (NCI-H1648): > 2 µM
IC50 (NCI-H69): > 2 µM
IC50 (KS-1): > 2 µM
IC50 (SK-LMS-1): > 2 µM
IC50 (LS-513): > 2 µM
IC50 (ATN-1): > 2 µM
IC50 (NCI-H747): > 2 µM
IC50 (NCI-H1770): > 2 µM
IC50 (D283 Med): > 2 µM
IC50 (RKO): > 2 µM
IC50 (MMAC-SF): > 2 µM
IC50 (HOP-62): 1.82 µM
IC50 (GT3TKB): > 2 µM
IC50 (KMOE-2): > 2 µM
IC50 (TK-10): > 2 µM
IC50 (DMS-79): > 2 µM
IC50 (HDLM-2): > 2 µM
IC50 (BE-13): 1.27 µM
IC50 (KM-H2): > 2 µM
IC50 (IST-MES1): > 2 µM
IC50 (RS4-11): > 2 µM
IC50 (IST-MEL1): > 2 µM
IC50 (LC-2-ad): > 2 µM
IC50 (D-502MG): > 2 µM
IC50 (LB1047-RCC): > 2 µM
IC50 (NCI-H1092): > 2 µM

Nc1ccn([C@@H]2O[C@H](CO)[C@@H](O)C2(F)F)c(=O)n1 [GEMCITABINE]
IC50 (ES8): < 0.004 µM
IC50 (HCC 2998): 0.00634 µM
IC50 (CP66-MEL): > 1.02 µM
IC50 (ES3): 0.0446 µM
IC50 (OMC-1): 0.583 µM
IC50 (JVM-3): > 1.02 µM
IC50 (KNS-81-FD): > 1.02 µM
IC50 (CCRF-CEM): 0.0188 µM
IC50 (NB10): 0.0244 µM
IC50 (KLE): 0.459 µM
IC50 (COLO-800): 0.0406 µM
IC50 (SK-PN-DW): < 0.004 µM
IC50 (EW-18): 0.0728 µM
IC50 (EW-3): 0.58 µM
IC50 (HT): > 1.02 µM
IC50 (ACN): < 0.004 µM
IC50 (EC-GI-10): > 1.02 µM
IC50 (BB65-RCC): < 0.004 µM
IC50 (NEC8): 0.0354 µM
IC50 (MHH-NB-11): 0.386 µM
IC50 (KARPAS-299): 0.252 µM
IC50 (LB373-MEL-D): > 1.02 µM
IC50 (NCI-H1155): 0.488 µM
IC50 (NCI-H1648): 0.511 µM
IC50 (NCI-H69): 0.459 µM
IC50 (KS-1): 0.167 µM
IC50 (SK-LMS-1): < 0.004 µM
IC50 (LS-513): 0.888 µM
IC50 (ATN-1): < 0.004 µM
IC50 (NCI-H747): 0.0423 µM
IC50 (NCI-H1770): 0.055 µM
IC50 (D283 Med): 0.127 µM
IC50 (RKO): < 0.004 µM
IC50 (MMAC-SF): > 1.02 µM
IC50 (HOP-62): 0.223 µM
IC50 (GT3TKB): 0.0427 µM
IC50 (KMOE-2): 0.155 µM
IC50 (TK-10): 0.0145 µM
IC50 (DMS-79): > 1.02 µM
IC50 (HDLM-2): > 1.02 µM
IC50 (BE-13): 0.00521 µM
IC50 (KM-H2): 0.261 µM
IC50 (IST-MES1): 0.774 µM
IC50 (RS4-11): < 0.004 µM
IC50 (IST-MEL1): < 0.004 µM
IC50 (LC-2-ad): < 0.004 µM
IC50 (D-502MG): > 1.02 µM
IC50 (LB1047-RCC): < 0.004 µM
IC50 (NCI-H1092): > 1.02 µM
